Measurements reported in the NIST ThermoML archive (doi:10.1016/j.jct.2012.11.007).
± gives the expanded uncertainty stated by the source.

Assay: mn = molality of the nth substance listed, in mol/kg
Settings: 101 kPa, Liquid; for mass density: Vibrating tube method; for speed of sound: Pulse-echo method

CCNC(=O)NCC [1,3-diethylurea] + O
Settings | mass density, 288.15 K [kg/m3] | mass density, 293.15 K [kg/m3] | mass density, 298.15 K [kg/m3] | mass density, 303.15 K [kg/m3] | mass density, 308.15 K [kg/m3] | speed of sound, 298.15 K [m/s]
m1 = 0.06282 | 999.298 ± 0.23 | 998.383 ± 0.23 | 997.207 ± 0.23 | 995.788 ± 0.23 | 994.155 ± 0.23 | 1501.8 ± 1.2
m1 = 0.1269 | 999.524 ± 0.24 | 998.589 ± 0.24 | 997.392 ± 0.24 | 995.959 ± 0.24 | 994.306 ± 0.24 | 1507 ± 1.3
m1 = 0.1909 | 999.768 ± 0.25 | 998.812 ± 0.25 | 997.588 ± 0.25 | 996.14 ± 0.25 | 994.468 ± 0.25 | 1512.1 ± 1.3
m1 = 0.2561 | 1000.03 ± 0.25 | 999.043 ± 0.25 | 997.793 ± 0.25 | 996.313 ± 0.25 | 994.634 ± 0.25 | 1517.2 ± 1.3
m1 = 0.3224 | 1000.31 ± 0.26 | 999.289 ± 0.26 | 998.012 ± 0.26 | 996.517 ± 0.26 | 994.82 ± 0.26 | 1522.3 ± 1.3

CNC(=O)NC [1,3-dimethylurea] + O
Settings | mass density, 288.15 K [kg/m3] | mass density, 293.15 K [kg/m3] | mass density, 298.15 K [kg/m3] | mass density, 303.15 K [kg/m3] | mass density, 308.15 K [kg/m3] | speed of sound, 298.15 K [m/s]
m1 = 0.06095 | 999.619 ± 0.23 | 998.707 ± 0.23 | 997.534 ± 0.23 | 996.121 ± 0.23 | 994.493 ± 0.23 | 1499.8 ± 1.2
m1 = 0.1226 | 1000.15 ± 0.23 | 999.227 ± 0.23 | 998.04 ± 0.23 | 996.616 ± 0.23 | 994.975 ± 0.23 | 1503 ± 1.2
m1 = 0.1846 | 1000.69 ± 0.23 | 999.75 ± 0.23 | 998.549 ± 0.23 | 997.113 ± 0.23 | 995.461 ± 0.23 | 1506.1 ± 1.2
m1 = 0.247 | 1001.24 ± 0.23 | 1000.28 ± 0.23 | 999.063 ± 0.23 | 997.613 ± 0.23 | 995.947 ± 0.23 | 1509.2 ± 1.2
m1 = 0.3099 | 1001.79 ± 0.23 | 1000.82 ± 0.23 | 999.585 ± 0.23 | 998.121 ± 0.23 | 996.442 ± 0.23 | 1512.3 ± 1.2

CCCCNC(N)=O [N-butylurea] + O
Settings | mass density, 288.15 K [kg/m3] | mass density, 293.15 K [kg/m3] | mass density, 298.15 K [kg/m3] | mass density, 303.15 K [kg/m3] | mass density, 308.15 K [kg/m3] | speed of sound, 298.15 K [m/s]
m1 = 0.05745 | 999.477 ± 0.23 | 998.55 ± 0.23 | 997.366 ± 0.23 | 995.939 ± 0.23 | 994.3 ± 0.23 | 1501.5 ± 1.2
m1 = 0.1154 | 999.871 ± 0.23 | 998.918 ± 0.23 | 997.706 ± 0.23 | 996.251 ± 0.23 | 994.591 ± 0.23 | 1506.3 ± 1.2
m1 = 0.173 | 1000.27 ± 0.23 | 999.281 ± 0.23 | 998.053 ± 0.23 | 996.57 ± 0.23 | 994.872 ± 0.23 | 1511.2 ± 1.2
m1 = 0.2305 | 1000.68 ± 0.23 | 999.67 ± 0.23 | 998.404 ± 0.23 | 996.892 ± 0.23 | 995.175 ± 0.23 | 1516 ± 1.2
m1 = 0.2873 | 1001.11 ± 0.23 | 1000.06 ± 0.23 | 998.771 ± 0.23 | 997.219 ± 0.23 | 995.477 ± 0.23 | 1520.9 ± 1.2

CCNC(N)=O [ethylurea] + O
Settings | mass density, 288.15 K [kg/m3] | mass density, 293.15 K [kg/m3] | mass density, 298.15 K [kg/m3] | mass density, 303.15 K [kg/m3] | mass density, 308.15 K [kg/m3] | speed of sound, 298.15 K [m/s]
m1 = 0.06285 | 999.725 ± 0.23 | 998.807 ± 0.23 | 997.629 ± 0.23 | 996.213 ± 0.23 | 994.58 ± 0.23 | 1500 ± 1.2
m1 = 0.1203 | 1000.29 ± 0.24 | 999.358 ± 0.24 | 998.163 ± 0.24 | 996.73 ± 0.24 | 995.083 ± 0.24 | 1503.1 ± 1.3
m1 = 0.179 | 1000.88 ± 0.24 | 999.919 ± 0.24 | 998.707 ± 0.24 | 997.258 ± 0.24 | 995.602 ± 0.24 | 1506.2 ± 1.3
m1 = 0.2358 | 1001.44 ± 0.25 | 1000.47 ± 0.25 | 999.234 ± 0.24 | 997.769 ± 0.24 | 996.09 ± 0.24 | 1509.1 ± 1.3
m1 = 0.3016 | 1002.09 ± 0.25 | 1001.09 ± 0.25 | 999.839 ± 0.25 | 998.357 ± 0.25 | 996.661 ± 0.25 | 1512.5 ± 1.3

CNC(N)=O [methylurea] + O
Settings | mass density, 288.15 K [kg/m3] | mass density, 293.15 K [kg/m3] | mass density, 298.15 K [kg/m3] | mass density, 303.15 K [kg/m3] | mass density, 308.15 K [kg/m3] | speed of sound, 298.15 K [m/s]
m1 = 0.06094 | 999.856 ± 0.23 | 998.94 ± 0.23 | 997.762 ± 0.23 | 996.348 ± 0.23 | 994.718 ± 0.23 | 1499.1 ± 1.2
m1 = 0.1225 | 1000.62 ± 0.24 | 999.688 ± 0.24 | 998.491 ± 0.24 | 997.062 ± 0.24 | 995.418 ± 0.24 | 1501.5 ± 1.3
m1 = 0.1837 | 1001.38 ± 0.24 | 1000.42 ± 0.24 | 999.21 ± 0.24 | 997.766 ± 0.24 | 996.108 ± 0.24 | 1503.9 ± 1.3
m1 = 0.2452 | 1002.13 ± 0.24 | 1001.16 ± 0.24 | 999.928 ± 0.24 | 998.469 ± 0.24 | 996.799 ± 0.24 | 1506.3 ± 1.3
m1 = 0.3076 | 1002.89 ± 0.25 | 1001.9 ± 0.25 | 1000.66 ± 0.25 | 999.182 ± 0.25 | 997.498 ± 0.25 | 1508.7 ± 1.3

NC(N)=O [urea] + O
Settings | mass density, 288.15 K [kg/m3] | mass density, 293.15 K [kg/m3] | mass density, 298.15 K [kg/m3] | mass density, 303.15 K [kg/m3] | mass density, 308.15 K [kg/m3] | speed of sound, 298.15 K [m/s]
m1 = 0.06521 | 1000.18 ± 0.23 | 999.268 ± 0.23 | 998.076 ± 0.23 | 996.664 ± 0.23 | 995.029 ± 0.23 | 1498.5 ± 1.2
m1 = 0.1233 | 1001.14 ± 0.23 | 1000.2 ± 0.23 | 998.994 ± 0.23 | 997.564 ± 0.23 | 995.915 ± 0.23 | 1500 ± 1.2
m1 = 0.1812 | 1002.09 ± 0.23 | 1001.13 ± 0.23 | 999.906 ± 0.23 | 998.455 ± 0.23 | 996.792 ± 0.23 | 1501.5 ± 1.2
m1 = 0.2403 | 1003.05 ± 0.23 | 1002.07 ± 0.23 | 1000.83 ± 0.23 | 999.361 ± 0.23 | 997.684 ± 0.23 | 1503.1 ± 1.2
m1 = 0.3004 | 1004.03 ± 0.23 | 1003.02 ± 0.23 | 1001.76 ± 0.23 | 1000.28 ± 0.23 | 998.584 ± 0.23 | 1504.6 ± 1.2
